Experimental findings from patent publication US9475776B2, “PRMT1 inhibitors and uses thereof” (Epizyme, Inc., priority 2013, dated 2016) are described below.

Broadly, the IC50 is the concentration that inhibits the measured activity by half.

Experiment [1] has as its system mono-methyl arginine in RKO cells. The experiment in a line: RKO methylation assay (In Cell Western for mono-methyl arginine and DNA content). It counts as cell-based. To be noted: 72 hours, percent activation of mono-methyl arginine signal normalised to DNA content. From the text:
RKO adherent cells were purchased from ATCC (American Type Culture Collection), Manassas, Va., USA. DMEM/Glutamax medium, penicillin-streptomycin, heat inactivated fetal bovine serum, 0.05% trypsin and D-PBS were purchased from Life Technologies, Grand Island, N.Y., USA. Odyssey blocking buffer, 800CW goat anti-rabbit IgG (H+L) antibody, and Licor Odyssey infrared scanner were purchased from Licor Biosciences, Lincoln, Nebr., USA. Mono-methyl arginine antibody was purchased from Cell Signaling Technology, Danvers, Mass., USA.
Methanol was purchased from VWR, Franklin, Mass., USA. 10% Tween 20 was purchased from KPL, Inc., Gaithersburg, Md., USA. DRAQ5 was purchased from Biostatus Limited, Leicestershire, UK. […]
First, the ratio for each well was determined by:
Each plate included fourteen control wells of DMSO only treatment (minimum activation) as well as fourteen control wells for maximum activation treated with 20 μM of a reference compound. The average of the ratio values for each control type was calculated and used to determine the percent activation for each test well in the plate. […] Percent activation was determined and EC30 curves were generated using triplicate wells per concentration of compound.

A further experiment has as its target T1, PRMT1 (Homo sapiens, UniProt Q99873).
T1 construct: GST-tagged PRMT1; made in house; host or cells: High Five insect cells (baculovirus, pFastBacI)
The experiment in a line: PRMT1 biochemical assay (3H-SAM Flashplate, histone H4 peptide substrate). To be noted: GST-tagged full-length human PRMT1 0.5 nM, 30 min preincubation, peptide 20 nM. From the text:
S-adenosylmethionine (SAM), S-adenosylhomocysteine (SAH), bicine, Tween20, dimethylsulfoxide (DMSO), bovine skin gelatin (BSG), and Tris(2-carboxyethyl)phosphine hydrochloride solution (TCEP) were purchased from Sigma-Aldrich at the highest level of purity possible. ^3H-SAM was purchase from American Radiolabeled Chemicals with a specific activity of 80 Ci/mmol. 384-well streptavidin Flashplates were purchased from PerkinElmer.
Peptide representative of human histone H4 residues 36-50 was synthesized with an N-terminal linker-affinity tag motif and a C-terminal amide cap by 21st Century Biochemicals. The peptide was purified by high-performance liquid chromatography (HPLC) to greater than 95% purity and confirmed by liquid chromatography mass spectrometry (LC-MS). The sequence was Biot-Ahx-RLARRGGVKRISGLI-amide (SEQ ID NO.: 1).
Full-length human PRMT1 isoform 1 (NM_001536.5) transcript clone was amplified from an HEK 293 cDNA library, incorporating flanking 5′ sequence encoding a FLAG tag (DYKDDDDK) (SEQ ID NO.:2) fused directly to Met 1 of PRMT1. The amplified gene was subcloned into pFastBacI (Life Technologies) modified to encode an N-terminal GST tag and a TEV cleavage sequence ([…] […] […] […]) (SEQ ID NO.:3) fused to Asp of the Flag tag of PRMT1.
Recombinant baculovirus were generated according to Bac-to-Bac kit instructions (Life Technologies). Protein over-expression was accomplished by infecting exponentially growing High Five insect cell culture at 1.5×10^6 cell/ml with 1:100 ratio of virus. Infections were carried out at 27° C. for 48 hours, harvested by centrifugation, and stored at −80° C. for purification. […]

Where only a bound is given, the exact number is not on record here.

T1 sequence (Q99873 with tags, fused parts or gaps): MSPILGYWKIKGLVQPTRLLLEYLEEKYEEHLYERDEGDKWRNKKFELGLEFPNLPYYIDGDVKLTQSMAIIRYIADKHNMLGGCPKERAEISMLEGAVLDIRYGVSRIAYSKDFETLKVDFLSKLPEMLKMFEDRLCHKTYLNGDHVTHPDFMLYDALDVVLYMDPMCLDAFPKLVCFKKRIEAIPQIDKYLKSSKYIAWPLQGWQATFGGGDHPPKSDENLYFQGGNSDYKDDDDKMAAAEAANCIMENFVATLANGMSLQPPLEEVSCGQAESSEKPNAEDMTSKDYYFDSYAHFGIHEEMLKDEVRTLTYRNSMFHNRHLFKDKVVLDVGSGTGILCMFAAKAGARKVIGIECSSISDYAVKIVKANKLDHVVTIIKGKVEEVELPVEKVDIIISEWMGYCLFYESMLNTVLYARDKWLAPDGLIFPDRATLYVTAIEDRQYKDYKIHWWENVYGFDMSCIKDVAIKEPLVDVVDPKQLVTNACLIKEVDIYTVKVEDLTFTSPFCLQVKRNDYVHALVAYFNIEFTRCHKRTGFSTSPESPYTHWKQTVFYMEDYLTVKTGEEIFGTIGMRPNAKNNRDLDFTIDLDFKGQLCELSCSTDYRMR

With `C=CC(=O)Nc1ccc(-c2[nH]ncc2CN(C)CCNC)cc1` [Compound 2, N-(4-(4-((methyl(2-(methylamino)ethyl)amino)methyl)-1H-pyrazol-3-yl)phenyl)acrylamide], the “In Cell Western EC30” value in experiment [1] is listed as “C (“C” indicates an EC30 ≧ 12.01 μM)”. The compound also came in with an IC50 on PRMT1 of 101 to 1000 nM.

Consider `C=C(C)C(=O)Nc1ccc(-c2[nH]ncc2CN(C)CCNC)cc1` [Compound 1, N-(4-(4-((methyl(2-(methylamino)ethyl)amino)methyl)-1H-pyrazol-3-yl)phenyl)methacrylamide], for which the “In Cell Western EC30” value in experiment [1] is reported as “B (“B” indicates an EC30 of 3.01-12.00 μM)”. This compound returned an IC50 against PRMT1 of less than 100 nM.

Consider “3-methyl-N-(3-(4-((methyl (2-(methylamino)ethyl)amino)methyl)-1H-pyrazol-3-yl)phenyl)but-2-enamide [Compound 3]”, for which the IC50 against PRMT1 lay in the range of 101 to 1000 nM.
